Reference: PubChem BioAssay AID1259411 (Chemical Carcinogenesis Research Information System (CCRIS), 2018)
Activity calls are given as the source filed them. How the calls were made is not given here.

System: rodent carcinogenicity bioassays, tumor incidence
Experiment: CCRIS carcinogenicity studies
Details: Dose: 0, Dose: 0
How it was run: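 NCI-built, expert-reviewed records of carcinogenicity and related test outcomes (mutagenicity, tumor promotion/inhibition) compiled from published and report sources, historical span 1985-2011, not updated.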

Q: Which carcinogen call (Species: RAT, Strain/Sex: WISTAR/MALE, Route: SUBCUTANEOUS, 0.5 MG IN DMSO 1/WK FOR DURATION OF STUDY (TOTAL DOSE: 0; 10.23 MG) (STUDY DURATION: 156 D), 0.5 MG IN DMSO 1/WK FOR DURATION OF STUDY (TOTAL DOSE: 0; 10.23 MG) (STUDY DURATION: 156 D), Tumor Site: Type of Lesion: INJECTION SITE: FIBROSARCOMA) does the source give for `COc1ccc2c3c(cccc13)OC([N+](=O)[O-])=C2` here?
A: active; positive

Q: Which results are given for `CC(CNN)c1ccccc1` (configuration not stated)?
A: carcinogen call (Species: MOUSE, Strain/Sex: SWISS/FEMALE, Route: ORAL, 156, 312 PPM IN DRINKING WATER DAILY FOR LIFE (STUDY DURATION: 120-140 WK), 156, 312 PPM IN DRINKING WATER DAILY FOR LIFE (STUDY DURATION: 120-140 WK)): inactive; negative; carcinogen call (Species: MOUSE, Strain/Sex: SWISS/MALE, Route: ORAL, 156, 312 PPM IN DRINKING WATER DAILY FOR LIFE (STUDY DURATION: 120-140 WK), 156, 312 PPM IN DRINKING WATER DAILY FOR LIFE (STUDY DURATION: 120-140 WK)): inactive; negative

Q: With `Cc1ccc2c(c1)[C@H](Nc1nc(N)nc(C(C)F)n1)[C@@H](C)C2` (some centres not stated) as the compound, how does the carcinogen call (Species: Mouse, Strain/Sex: C57BL/6J/Female (50/Group), Route: Oral, 8.4, 42, 168 mg/kg/day of 93.14% indaziflam in diet for 18 mo, study duration 18 mo, 8.4, 42, 168 mg/kg/day of 93.14% indaziflam in diet for 18 mo, study duration 18 mo) read?
A: inactive; negative

Q: And the carcinogen call (Species: Mouse, Strain/Sex: C57BL/6J/Male (50/Group), Route: Oral, 6.8, 34, 142 mg/kg/day of 93.14% indaziflam in diet for 18 mo, study duration 18 mo, 6.8, 34, 142 mg/kg/day of 93.14% indaziflam in diet for 18 mo, study duration 18 mo)?
A: inactive; negative

Q: What about the carcinogen call (Species: Rat, Strain/Sex: Wistar/Female (60/Group), Route: Oral, 17, 167, 661 (wks 0-40), 452 (overall) mg/kg/day of 93.14% indaziflam in diet for 2 yr, study duration 2 yr, 17, 167, 661 (wks 0-40), 452 (overall) mg/kg/day of 93.14% indaziflam in diet for 2 yr, study duration 2 yr) of the same compound?
A: inactive; negative

Q: What about the carcinogen call (Species: Rat, Strain/Sex: Wistar/Male (60/Group), Route: Oral, 12, 118, 414 mg/kg/day of 93.14% indaziflam in diet for 2 yr, study duration 2 yr, 12, 118, 414 mg/kg/day of 93.14% indaziflam in diet for 2 yr, study duration 2 yr) of the same compound?
A: inactive; negative

Q: How did the carcinogen call (Species: RAT, Strain/Sex: WISTAR/FEMALE, Route: ORAL, 450 MG/L CITRATE BUFFER SOLUTION IN DRINKING WATER 5D/WK FOR AN AVERAGE TOTAL DOSE OF 0, 950 MG (STUDY DURATION: 28 W, 450 MG/L CITRATE BUFFER SOLUTION IN DRINKING WATER 5D/WK FOR AN AVERAGE TOTAL DOSE OF 0, 950 MG (STUDY DURATION: 28 W, Tumor Site: Type of Lesion: LIVER: CARCINOMA) turn out when `O=NN1CCC(=O)NC1=O` was run?
A: active; positive

Q: And the carcinogen call (Species: RAT, Strain/Sex: WISTAR/MALE, Route: ORAL, 450 MG/L CITRATE BUFFER SOLUTION IN DRINKING WATER 5D/WK FOR AN AVERAGE TOTAL DOSE OF 0, 1250 MG (STUDY DURATION: 32, 450 MG/L CITRATE BUFFER SOLUTION IN DRINKING WATER 5D/WK FOR AN AVERAGE TOTAL DOSE OF 0, 1250 MG (STUDY DURATION: 32, Tumor Site: Type of Lesion: LIVER: CARCINOMA, KIDNEY: ADENOMA)?
A: active; positive

Q: What does the source list for `O=[N+]([O-])c1ccc(Nc2ccc(Nc3ccccc3)c(S(=O)(=O)O)c2)c([N+](=O)[O-])c1`?
A: carcinogen call (Species: MOUSE, Strain/Sex: B6C3F1/FEMALE, Route: GAVAGE, 250, 500 MG/KG IN CORN OIL 5D/WK FOR 103 WK (STUDY DURATION: 104 WK), 250, 500 MG/KG IN CORN OIL 5D/WK FOR 103 WK (STUDY DURATION: 104 WK)): inactive; negative; carcinogen call (Species: MOUSE, Strain/Sex: B6C3F1/MALE, Route: GAVAGE, 125, 250 MG/KG IN CORN OIL 5D/WK FOR 103 WK (STUDY DURATION: 104 WK), 125, 250 MG/KG IN CORN OIL 5D/WK FOR 103 WK (STUDY DURATION: 104 WK)): inactive; negative; carcinogen call (Species: RAT, Strain/Sex: F344/FEMALE, Route: GAVAGE, 375, 750 MG/KG IN CORN OIL 5D/WK FOR 103 WK (STUDY DURATION: 105 WK), 375, 750 MG/KG IN CORN OIL 5D/WK FOR 103 WK (STUDY DURATION: 105 WK), Tumor Site: Type of Lesion: KIDNEY: TRANSITIONAL CELL CARCINOMA): active; positive; carcinogen call (Species: RAT, Strain/Sex: F344/MALE, Route: GAVAGE, 375 MG/KG IN CORN OIL 5D/WK FOR 103 WK (STUDY DURATION: 104 WK)): inactive; negative

Q: How did the carcinogen call (Species: MOUSE, Strain/Sex: NMRI/FEMALE, Route: INHALATION, 7.4 MG/M3 18 HR/D 5 D/WK FOR 4 MO INCREASED TO 12.2 MG/M3 FOR 9.5 MO FOLLOWED BY CLEAN AIR FOR 9.5 MO (STUDY DURATION) turn out when `C` was run?
A: inactive; negative

Q: What about the carcinogen call (Species: RAT, Strain/Sex: F344/FEMALE, Route: INHALATION, 2.5, 6.5 MG/M3 IN AIR 16 HR/D 5 D/WK FOR 24 MO (STUDY DURATION: 25.5 MO), 2.5, 6.5 MG/M3 IN AIR 16 HR/D 5 D/WK FOR 24 MO (STUDY DURATION: 25.5 MO), Tumor Site: Type of Lesion: LUNG: BENIGN OR MALIGNANT NEOPLASM) of the same compound?
A: active; positive

Q: And the carcinogen call (Species: RAT, Strain/Sex: F344/FEMALE, Route: INHALATION, 2.5, 6.5 MG/M3 OF AIR 16 HR/D 5 D/WK FOR UP TO 24 MO (STUDY DURATION: LIFE SPAN), 2.5, 6.5 MG/M3 OF AIR 16 HR/D 5 D/WK FOR UP TO 24 MO (STUDY DURATION: LIFE SPAN), Tumor Site: Type of Lesion: LUNG: MALIGNANT TUMOR)?
A: active; positive

Q: What about the carcinogen call (Species: RAT, Strain/Sex: F344/MALE, Route: INHALATION, 2.5, 6.5 MG/M3 IN AIR 16 HR/D 5 D/WK FOR 24 MO (STUDY DURATION: 25.5 MO), 2.5, 6.5 MG/M3 IN AIR 16 HR/D 5 D/WK FOR 24 MO (STUDY DURATION: 25.5 MO)) of the same compound?
A: inactive; negative

Q: And the carcinogen call (Species: RAT, Strain/Sex: F344/MALE, Route: INHALATION, 2.5, 6.5 MG/M3 OF AIR 16 HR/D 5 D/WK FOR UP TO 24 MO (STUDY DURATION: LIFE SPAN), 2.5, 6.5 MG/M3 OF AIR 16 HR/D 5 D/WK FOR UP TO 24 MO (STUDY DURATION: LIFE SPAN), Tumor Site: Type of Lesion: LUNG: MALIGNANT TUMOR)?
A: active; positive

Q: And the carcinogen call (Species: RAT, Strain/Sex: WISTAR/FEMALE, Route: INHALATION, 7.4 MG/M3 18 HR/D 5 D/WK FOR 4 MO INCREASED TO 12.2 MG/M3 FOR 20 MO FOLLOWED BY CLEAN AIR FOR 6 MO (STUDY DURATION: 3, Tumor Site: Type of Lesion: LUNG: TUMOR)?
A: active; positive

Q: How did the carcinogen call (Species: RAT, Strain/Sex: F344/FEMALE, Route: ORAL, 0.25, 0.5% IN DRINKING WATER FOR 104 WK (STUDY DURATION: 112 WK), 0.25, 0.5% IN DRINKING WATER FOR 104 WK (STUDY DURATION: 112 WK)) turn out when `[Cl][Fe]([Cl])[Cl]` was run?
A: inactive; negative

Q: What about the carcinogen call (Species: RAT, Strain/Sex: F344/MALE, Route: ORAL, 0.25, 0.5% IN DRINKING WATER FOR 104 WK (STUDY DURATION: 112 WK), 0.25, 0.5% IN DRINKING WATER FOR 104 WK (STUDY DURATION: 112 WK)) of the same compound?
A: inactive; negative

Q: For `COP(=S)(OC)SCn1nnc2ccccc2c1=O`, which carcinogen call (Species: MOUSE, Strain/Sex: B6C3F1/FEMALE, Route: ORAL, 62.5, 125 PPM IN DIET FOR 80 WK (STUDY DURATION: 92-93 WK), 62.5, 125 PPM IN DIET FOR 80 WK (STUDY DURATION: 92-93 WK)) is on record?
A: inactive; negative

Q: What about the carcinogen call (Species: MOUSE, Strain/Sex: B6C3F1/MALE, Route: ORAL, 31.3, 62.5 PPM IN DIET FOR 80 WK (STUDY DURATION: 92-93 WK), 31.3, 62.5 PPM IN DIET FOR 80 WK (STUDY DURATION: 92-93 WK)) of the same compound?
A: inactive; negative

Q: And the carcinogen call (Species: RAT, Strain/Sex: OSBORNE-MENDEL/FEMALE, Route: ORAL, 62.5, 125 PPM IN DIET FOR 80 WK (STUDY DURATION: 114-115 WK), 62.5, 125 PPM IN DIET FOR 80 WK (STUDY DURATION: 114-115 WK))?
A: inactive; negative

Q: What about the carcinogen call (Species: RAT, Strain/Sex: OSBORNE-MENDEL/MALE, Route: ORAL, 78, 156 PPM IN DIET FOR 80 WK (STUDY DURATION: 114-115 WK), 78, 156 PPM IN DIET FOR 80 WK (STUDY DURATION: 114-115 WK), Tumor Site: Type of Lesion: THYROID GLAND: TUMOR, PANCREAS: ISLET CELL ADENOMA OR CARCINOMA) of the same compound?
A: equivocal

Q: What about the carcinogen call (Species: Rat, Strain/Sex: Wistar/Female, Route: Oral, 15, 45 ppm (vehicle= 1% DAB8 peanut oil) in feed for 24 mo., 15, 45 ppm (vehicle= 1% DAB8 peanut oil) in feed for 24 mo.) of the same compound?
A: inactive; negative; purity = 87.2%

Q: What about the carcinogen call (Species: Rat, Strain/Sex: Wistar/Male, Route: Oral, 15, 45 ppm (vehicle= 1% DAB8 peanut oil) in feed for 24 mo., 15, 45 ppm (vehicle= 1% DAB8 peanut oil) in feed for 24 mo.) of the same compound?
A: inactive; negative; purity = 87.2%
